From ChEMBL document CHEMBL1123968, “Isoprenoid (phosphinylmethyl)phosphonates as inhibitors of squalene synthetase” (J Med Chem, 1988) come the findings set out here.

In the assay the target is T1, Squalene synthase (Rattus norvegicus, UniProt Q02769).
T1 sequence (Q02769 whole entry): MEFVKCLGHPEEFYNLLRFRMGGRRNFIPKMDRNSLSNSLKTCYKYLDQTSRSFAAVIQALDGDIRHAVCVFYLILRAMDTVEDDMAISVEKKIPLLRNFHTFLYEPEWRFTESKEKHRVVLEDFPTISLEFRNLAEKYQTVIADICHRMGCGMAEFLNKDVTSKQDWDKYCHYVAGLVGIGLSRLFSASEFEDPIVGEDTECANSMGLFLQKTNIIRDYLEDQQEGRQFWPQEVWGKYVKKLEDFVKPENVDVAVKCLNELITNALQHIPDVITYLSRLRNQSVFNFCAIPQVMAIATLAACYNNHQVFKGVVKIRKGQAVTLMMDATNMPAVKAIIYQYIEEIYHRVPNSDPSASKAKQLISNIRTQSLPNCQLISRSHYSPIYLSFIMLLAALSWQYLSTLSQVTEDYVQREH
The experiment in a line: Inhibition of squalene synthetase was determined in rat liver microsomes. The arrangement: species or system Microsome. The following applies: read-out: I50. In general terms: Microsomes from liver hold many membrane-bound enzymes, among them those of drug oxidation.

Structures are written as SMILES.

For the molecule `CC(C)=CCC/C(C)=C/CC/C(C)=C/C=C/P(=O)(O)C(F)(F)P(=O)(O)O`, the IC50 worked out at 15.5 µM.

In the case of `CC(C)=CCC/C(C)=C/CC/C(C)=C/C=C/P(=O)(O)CP(=O)(O)O`, the IC50 amounted to 12.2 µM. For `CC(C)=CCC/C(C)=C/CC/C(C)=C/CCP(=O)(O)CP(=O)(O)O` the value was 31.5 µM; for `CC(C)=CCC/C(C)=C/CC/C(C)=C/CCP(=O)(O)C(F)(F)P(=O)(O)O`, 29.9 µM. In the case of `COP(=O)(O)CP(=O)(O)CC/C=C(\C)CC/C=C(\C)CCC=C(C)C` it was 177 µM; in that of `CC(C)=CCC/C(C)=C/CC/C(C)=C/CCCP(=O)(O)CP(=O)(O)O`, 67 µM; in that of `CC(C)=CCC/C(C)=C/CC/C(C)=C/CCP(=O)(O)OP(=O)(O)O`, 42 µM.
